Data published in paper PMC3739731, “Pharmacological Inhibition of polysialyltransferase ST8SiaII Modulates Tumour Cell Migration” (PLoS ONE, 2013).

Assays:
[1] = target: T1, ST8SiaII (Homo sapiens, UniProt Q92186); assay: HPLC assay of DMB-DP3 polysialylation with recombinant human ST8SiaII, Dixon plot; assay type: biochemical
T1 construct: gene ST8SIA2
T1 sequence (Q92186 1-375): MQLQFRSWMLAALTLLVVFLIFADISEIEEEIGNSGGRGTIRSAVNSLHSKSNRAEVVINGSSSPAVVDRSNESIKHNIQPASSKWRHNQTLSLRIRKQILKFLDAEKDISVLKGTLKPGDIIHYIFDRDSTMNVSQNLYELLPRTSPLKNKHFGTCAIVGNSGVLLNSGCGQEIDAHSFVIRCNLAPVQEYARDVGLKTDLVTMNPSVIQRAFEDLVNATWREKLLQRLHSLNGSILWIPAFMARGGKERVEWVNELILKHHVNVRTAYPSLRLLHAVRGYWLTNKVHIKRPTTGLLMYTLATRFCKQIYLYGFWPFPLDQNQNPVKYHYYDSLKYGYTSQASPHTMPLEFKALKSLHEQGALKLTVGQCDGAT

[2] = target: T1, ST8SiaII; assay: HPLC-fluorescence enzyme kinetics, Lineweaver-Burk (Km); assay type: biochemical

Ki [1]	Km [2]	Molecule
10 µM	–	Nc1ccn([C@@H]2O[C@H](COP(=O)(O)O)[C@@H](O)[C@H]2O)c(=O)n1 [CMP]
–	38.9 µM	DMB-DP3
